In one test the target is Carbonic anhydrase 9 (Homo sapiens, UniProt Q16790). The test can be described thus: Inhibition of recombinant human carbonic anhydrase 9 assessed as reduction in CO2 hydration pretreated for 15 mins followed by CO2 addition measured for 10 to 100 sec by Line-Weaver Burk plot analysis.
The next test deals with Carbonic anhydrase 1 (Homo sapiens, UniProt P00915). The test can be described thus: Inhibition of recombinant human carbonic anhydrase 1 assessed as reduction in CO2 hydration pretreated for 15 mins followed by CO2 addition measured for 10 to 100 sec by Line-Weaver Burk plot analysis.
Chain of Carbonic anhydrase 1 (P00915 whole entry): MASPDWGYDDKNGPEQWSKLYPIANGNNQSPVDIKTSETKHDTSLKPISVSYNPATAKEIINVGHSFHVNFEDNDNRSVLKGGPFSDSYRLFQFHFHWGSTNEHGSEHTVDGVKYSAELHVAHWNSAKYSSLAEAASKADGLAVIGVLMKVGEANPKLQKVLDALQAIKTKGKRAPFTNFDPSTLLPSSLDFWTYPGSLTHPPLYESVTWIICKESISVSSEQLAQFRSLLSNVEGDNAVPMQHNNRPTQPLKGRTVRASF

Turning to `CC(=O)NS(=O)(=O)c1ccc(C2=NN(C(C)=O)C(c3ccc([N+](=O)[O-])cc3)O2)cc1` (centres undefined), on Carbonic anhydrase 9, the Ki came out at 33.1 nM.
In the case of `CC(=O)NS(=O)(=O)c1ccc(C2=NN(C(C)=O)C(c3ccc(C)cc3)O2)cc1` (centres undefined), on Carbonic anhydrase 9, the inhibition constant Ki stood at 502 nM.
For `CC(=O)NS(=O)(=O)c1ccc(C2=NN(C(C)=O)C(c3ccccc3[N+](=O)[O-])O2)cc1` (centres undefined), the Ki at Carbonic anhydrase 1 is above 10000 nM; at Carbonic anhydrase 9 it was 159 nM.
For `CC(=O)NS(=O)(=O)c1ccc(C2=NN(C(C)=O)C(c3ccc(Cl)cc3Cl)O2)cc1` (single isomer, unassigned; (-)), the inhibitory constant (Ki) on Carbonic anhydrase 9 came to 24.2 nM.
Consider `CC(=O)NS(=O)(=O)c1ccc(C2=NN(C(C)=O)C(c3ccc(F)cc3F)O2)cc1` (centres undefined), for which, at Carbonic anhydrase 9, the Ki was determined as 373 nM.
Still for that read-out and setting: next, `CC(=O)NS(=O)(=O)c1ccc(C2=NN(C(C)=O)C(c3ccc(Cl)cc3Cl)O2)cc1` (racemic): 25 nM; `COc1cccc(C2OC(c3ccc(S(=O)(=O)NC(C)=O)cc3)=NN2C(C)=O)c1` (centres undefined): 430 nM.
With `COc1ccc(C2OC(c3ccc(S(=O)(=O)NC(C)=O)cc3)=NN2C(C)=O)cc1` (centres undefined), the Ki at Carbonic anhydrase 1 was above 10000 nM; on Carbonic anhydrase 9, 143 nM.
Turning to `CC(=O)NS(=O)(=O)c1ccc(C2=NN(C(C)=O)C(c3ccccc3C)O2)cc1` (centres undefined), the Ki on Carbonic anhydrase 9 stood at 489 nM.
Turning to `CC(=O)NS(=O)(=O)c1ccc(C2=NN(C(C)=O)C(c3ccc(Cl)cc3Cl)O2)cc1` (single isomer, unassigned; (+)), the Ki on Carbonic anhydrase 9 was 26.9 nM.
On to `COc1ccccc1C1OC(c2ccc(S(=O)(=O)NC(C)=O)cc2)=NN1C(C)=O` (centres undefined), for which the Ki at Carbonic anhydrase 9 is 378 nM.
On to `CC(=O)NS(=O)(=O)c1ccc(C2=NN(C(C)=O)C(c3cccc([N+](=O)[O-])c3)O2)cc1` (centres undefined), for which the results for the Ki on Carbonic anhydrase 1 and at Carbonic anhydrase 9 were above 10000 nM and 44.3 nM, respectively.
For `CC(=O)NS(=O)(=O)c1ccc(C2=NN(C(C)=O)C(c3ccc(C(F)(F)F)cc3)O2)cc1` (centres undefined), in that order: above 10000 nM and 468 nM.
On to `CC(=O)NS(=O)(=O)c1ccc(C2=NN(C(C)=O)C(c3ccc(Cl)cc3)O2)cc1` (centres undefined), for which the Ki at Carbonic anhydrase 9 was determined as 502 nM.
`CC(=O)NS(=O)(=O)c1ccc(C2=NN(C(C)=O)C(c3ccc(F)cc3)O2)cc1` (centres undefined): at Carbonic anhydrase 9, the inhibition constant (Ki) was determined as 43.6 nM.

What is called Ki is the dissociation constant of the complex between target and ligand, obtained from inhibition or displacement.

Values taken from ChEMBL document CHEMBL4118091, “N-Acylbenzenesulfonamide Dihydro-1,3,4-oxadiazole Hybrids: Seeking Selectivity toward Carbonic Anhydrase Isoforms” (ACS Med Chem Lett, 2017).
